In patent publication US8735129B2, “Ginsenoside glycosidase derived from the genus Terrabacter, and use thereof” (Korea Research Institute of Bioscience and Biotechnology, priority 2009, dated 2014):
“And” between values parts separate entries of the source, which are not always exact repeats. Equal values may be shown once. Read-outs that look alike come from different tables or passages of the source.

Experiments:
[1] = system: purified recombinant BGL-GYP17; test: Effects of metal ions and chemical agents on ginsenoside glycosidase activity (pNPGlc substrate); type: biochemical, Terrabacter ginsenosidimutans Gsoil 3082
recombinant Bgl-gyp17 [2] = test: Enzymatic hydrolysis of PPD-type ginsenosides (TLC, HPLC, NMR); type: biochemical, Terrabacter ginsenosidimutans Gsoil 3082; details: 0.2 U enzyme, 50 mM sodium phosphate pH 7.0, 37° C., hydrolysis of glucoses at C-3
Procedure: In order to analyze the specificity and selectivity of the recombinant enzyme for the hydrolysis of glucose at the C-3 and C-20 positions of PPD-type ginsenoside, ginsenoside Rb1, Rb2, Rc, Rd, and Rg3 were used as substrates. Each reaction mixture containing 0.2 U enzyme, 50 mM sodium phosphate buffer 0.1% (w/v) (pH 7.0), and the substrate was incubated at 37° C. Each sample was withdrawn at regular intervals, and an equal volume of water-saturated butanol was added to stop the reaction. The n-butanol fraction was evaporated to dryness, and any residual material was dissolved in CH3OH and then examined by TLC HPLC or NMR analysis.

[3] = orally administered into the human body; cited from earlier work
recombinant Bgl-gyp17 [4] = test: Enzymatic hydrolysis of PPD-type ginsenosides (TLC, HPLC, NMR); type: biochemical, Terrabacter ginsenosidimutans Gsoil 3082
Bgl-gyp17 = test: Substrate preference with chromogenic oNP and pNP glycosides; type: biochemical, Terrabacter ginsenosidimutans Gsoil 3082; details: 2.0 mM substrate; for Relative activity (%): 50 mM sodium phosphate pH 7.0, 37° C., activity on ONPGlu = 100%
Procedure: 1 activity unit was defined as the release of o-nitrophenol or p-nitrophenol per minute. For analysis of substrate preference, 2.0 mM chromogenic oNP and pNP (p-nitrophenyl) were used as the substrates, and incubated at 37° C. for 5 minutes. The analyzed substrates (Sigma) were pNP-β-D-glucopyranoside, pNP-β-D-galactopyranoside, pNP-β-D-fucopyranoside, pNP-β-D-glucosaminide, pNP-β-L-arabinopyranoside, pNP-β-D-mannopyronoside, pNP-β-D-xylopyranoside, pNP-α-D-glucopyranoside, pNP-α-L-arabinopyranoside, pNP-α-L-arabinopyranoside, pNP-α-D-rhamnopyranoside, pNP-α-D-mannopyranoside, pNP-α-D-xylopyranoside, o-nitrophenol[oNP]-β-D-glucopyranoside, oNP-β-D-galactopyranoside, oNP-β-D-fucopyranoside, and oNP-β-D-galactopyranoside.
In order to examine the substrate specificity of Bgl-gyp17, it was incubated in 50 mM sodium phosphate buffer containing 2.0 mM βα and β-type p-NP (p-nitrophenyl) and oNP (O-nitrophenyl)-glycosidase at pH 7.0 and 37° C. […] The Km and Vmax for the hydrolysis of pNPGlc by ginsenoside glycosidase were determined using 0-2 mM substrate and the enzyme kinetics program reported by Cleland. The values measured by the program were 4.24 mM and 0.10 mmol*min^−1*mg of protein^−1 for pNpGlc.

[5] = 1 mM metal ion or reagent, 30 min at room temperature, pNPGlc substrate, 100% = 44.3 U/mg
[6] = 10 mM metal ion or reagent, 30 min at room temperature, pNPGlc substrate, 100% = 44.3 U/mg

## OCCS [Beta-Mercaptoethanol]
[1]; [5]
  Relative activity (%): 98.4 ± 4.89%
[1]; [6]
  Relative activity (%): 102.5 ± 4.57%

## CC(C)=CCC[C@](C)(O[C@@H]1O[C@H](CO[C@@H]2O[C@@H](CO)[C@H](O)[C@H]2O)[C@@H](O)[C@H](O)[C@H]1O)[C@H]1CC[C@]2(C)[C@@H]1[C@H](O)C[C@@H]1[C@@]3(C)CC[C@H](O[C@@H]4O[C@H](CO)[C@@H](O)[C@H](O)[C@H]4O)C(C)(C)[C@@H]3CC[C@]12C [C-Mc1, compound Mc1]
Recombinant Bgl-gyp17 [2]
  conversion of the ginsenoside by the enzyme (product): C-Mc

## [Ca+2].[Cl-].[Cl-] [CaCl2]
[1]; [5]
  Relative activity (%): 91.8 ± 4.59%
[1]; [6]
  Relative activity (%): 101.5 ± 5.23%

## [Cl-].[Cl-].[Co+2] [CoCl2]
[1]
  Relative activity (%): 100.9 ± 8.43% and 97.0 ± 5.04%

## [Cl][Cu][Cl] [CuCl2]
[1]; [5]
  Relative activity (%): 84.7 ± 4.48%
[1]; [6]
  Relative activity (%): 71.7 ± 5.07%

## CC(C)=CCCC(C)(OC1OC(COC2OCC(O)C(O)C2O)C(O)C(O)C1O)C1CCC2(C)C1C(O)CC1C3(C)CCC(OC4OC(CO)C(O)C(O)C4O)C(C)(C)C3CCC12C (centres unmarked) [C—O, compound O]
Recombinant Bgl-gyp17 [2]
  conversion of the ginsenoside by the enzyme (product): C—Y

## O[C@@H](CS)[C@@H](O)CS [DTT]
[1]; [5]
  Relative activity (%): 96.7 ± 5.59%
[1]; [6]
  Relative activity (%): 96.6 ± 5.14%

## O=C(O)CN(CCN(CC(=O)O)CC(=O)O)CC(=O)O [EDTA]
[1]; [5]
  Relative activity (%): 98.6 ± 6.49%
[1]; [6]
  Relative activity (%): 96.6 ± 4.52%

## CC(C)=CCC[C@](C)(O[C@@H]1O[C@H](CO)[C@@H](O)[C@H](O)[C@H]1O)[C@H]1CC[C@]2(C)[C@@H]1[C@H](O)C[C@@H]1[C@@]3(C)CC[C@H](O[C@@H]4O[C@H](CO)[C@@H](O)[C@H](O)[C@H]4O[C@@H]4O[C@H](CO)[C@@H](O)[C@H](O)[C@H]4O)C(C)(C)[C@@H]3CC[C@]12C [Ginsenoside Rd]
Recombinant Bgl-gyp17 [2]
  conversion of the ginsenoside by the enzyme (product): converted into F2
Recombinant Bgl-gyp17 [2]; listed as Rd
  conversion of the ginsenoside by the enzyme (product): C—K

## [Cl][Hg][Cl] [Hg^2+, HgCl2]
[1]
  effect on Bgl-gyp17 activity: strongly inhibited the activity

## [Cl-].[K+] [KCl]
[1]; [5]
  Relative activity (%): 102.7 ± 4.65%
[1]; [6]
  Relative activity (%): 96.2 ± 4.64%

## [Cl-].[Cl-].[Mg+2] [MgCl2]
[1]; [5]
  Relative activity (%): 94.8 ± 5.10%
[1]; [6]
  Relative activity (%): 95.2 ± 5.14%

## [Cl][Mn][Cl] [MnCl2]
[1]; [5]
  Relative activity (%): 101.1 ± 5.45%
[1]; [6]
  Relative activity (%): 96.9 ± 4.79%

## [Cl-].[Na+] [Nacl, NaCl]
[1]
  Relative activity (%): 102.3 ± 5.15% and 97.7 ± 4.51%

## CC(C)=CCC[C@](C)(O[C@@H]1O[C@H](CO)[C@@H](O)[C@H](O)[C@H]1O)[C@H]1CC[C@]2(C)[C@@H]1[C@H](O)C[C@@H]1[C@@]3(C)CC[C@H](O)C(C)(C)[C@@H]3[C@@H](O[C@@H]3O[C@H](CO)[C@@H](O)[C@H](O)[C@H]3O[C@@H]3O[C@@H](C)[C@H](O)[C@@H](O)[C@H]3O)C[C@]12C [Re]
[3]
  in vivo absorption: very low in vivo absorption

## CC(C)=CCC[C@](C)(O[C@@H]1O[C@H](CO)[C@@H](O)[C@H](O)[C@H]1O)[C@H]1CC[C@]2(C)[C@@H]1[C@H](O)C[C@@H]1[C@@]3(C)CC[C@H](O)C(C)(C)[C@@H]3[C@@H](O[C@@H]3O[C@H](CO)[C@@H](O)[C@H](O)[C@H]3O)C[C@]12C [Rg1]
[3]
  in vivo absorption: very low in vivo absorption

## CCCCCCCCCCCCOS(=O)(=O)[O-].[Na+] [SDS]
[1]
  concentration showing an inhibitory effect: ≥ 10 mM
[1]; [5]
  Relative activity (%): 94.8 ± 6.98%
[1]; [6]
  Relative activity (%): 2.7 ± 3.22%

## [Cl-].[Cl-].[Zn+2] [ZnCl2]
[1]; [5]
  Relative activity (%): 92.8 ± 4.72%
[1]; [6]
  Relative activity (%): 72.8 ± 4.27%

## CC(C)=CCC[C@](C)(O[C@@H]1O[C@H](CO)[C@@H](O)[C@H](O)[C@H]1O)[C@H]1CC[C@]2(C)[C@@H]1[C@H](O)C[C@@H]1[C@@]3(C)CC[C@H](O)C(C)(C)[C@@H]3CC[C@]12C [compound K]
Recombinant Bgl-gyp17 [4]; Rb1 substrate, enzyme 1 mg/ml
  time at which the final product was produced: 24 h

## CC(C)=CCC[C@](C)(O)[C@H]1CC[C@]2(C)[C@@H]1[C@H](O)C[C@@H]1[C@@]3(C)CC[C@H](O[C@@H]4O[C@H](CO)[C@@H](O)[C@H](O)[C@H]4O[C@@H]4O[C@H](CO)[C@@H](O)[C@H](O)[C@H]4O)C(C)(C)[C@@H]3CC[C@]12C [ginsenoside Rg3]
Recombinant Bgl-gyp17 [2]
  conversion of the ginsenoside by the enzyme (product): produced ginsenoside Rh2
Recombinant Bgl-gyp17 [2]; listed as Rg3
  conversion of the ginsenoside by the enzyme (product): PPD

## CC(C)=CCC[C@](C)(O[C@@H]1O[C@H](CO[C@@H]2O[C@H](CO)[C@@H](O)[C@H](O)[C@H]2O)[C@@H](O)[C@H](O)[C@H]1O)[C@H]1CC[C@]2(C)[C@@H]1[C@H](O)C[C@@H]1[C@@]3(C)CC[C@H](O)C(C)(C)[C@@H]3CC[C@]12C [gyp LXXV, gypenoside LXXV]
Recombinant Bgl-gyp17 [2]
  conversion of the ginsenoside by the enzyme (product): C—K
Recombinant Bgl-gyp17 [4]; Rb1 substrate, enzyme 1 mg/ml
  time at which it started to appear: 10 min
  time of decrease to almost undetectable level: 24 h
  time of maximum level: 2 h

## CC(C)=CCC[C@](C)(O[C@@H]1O[C@H](CO[C@@H]2O[C@H](CO)[C@@H](O)[C@H](O)[C@H]2O)[C@@H](O)[C@H](O)[C@H]1O)[C@H]1CC[C@]2(C)[C@@H]1[C@H](O)C[C@@H]1[C@@]3(C)CC[C@H](O[C@@H]4O[C@H](CO)[C@@H](O)[C@H](O)[C@H]4O)C(C)(C)[C@@H]3CC[C@]12C [gyp XVII, gypenoside XVII]
Recombinant Bgl-gyp17 [2]
  conversion of the ginsenoside by the enzyme (product): C—K
Recombinant Bgl-gyp17 [4]; printed: when ginsenoside Rb1 was 0.1 mg/ml
  conversion of the ginsenoside: subsequently converted into gyp LXXV

## O=[N+]([O-])c1ccccc1O[C@H]1O[C@H](CO)[C@H](O)[C@H](O)[C@H]1O [oNP-α-D-galactopyranoside]
Bgl-gyp17
  Relative activity (%): 0%

## C[C@H]1O[C@@H](Oc2ccccc2[N+](=O)[O-])[C@H](O)[C@@H](O)[C@H]1O [oNP-β-D-fucopyranoside]
Bgl-gyp17
  Relative activity (%): 15.88 ± 0.544%

## O=[N+]([O-])c1ccccc1O[C@@H]1O[C@H](CO)[C@H](O)[C@H](O)[C@H]1O [oNP-β-D-galatopyranoside]
Bgl-gyp17
  Relative activity (%): 2.33 ± 0.081%

## O=[N+]([O-])c1ccccc1O[C@@H]1O[C@H](CO)[C@@H](O)[C@H](O)[C@H]1O [oNP-β-D-glucopyranoside]
Bgl-gyp17
  Relative activity (%): 100.00 ± 3.542%
Bgl-gyp17; pH 7.0, 37° C.
  activity toward substrate: highest activity

## O=[N+]([O-])c1ccc(O[C@H]2O[C@H](CO)[C@@H](O)[C@H](O)[C@H]2O)cc1 [pNP-α-D-glucopyranoside]
Bgl-gyp17
  Relative activity (%): 1.12 ± 0.214%

## O=[N+]([O-])c1ccc(O[C@H]2O[C@H](CO)[C@@H](O)[C@H](O)[C@@H]2O)cc1 [pNP-α-D-mannopyranoside]
Bgl-gyp17
  Relative activity (%): 0%

## O=[N+]([O-])c1ccc(O[C@@H]2O[C@@H](CO)[C@H](O)[C@H]2O)cc1 [pNP-α-L-arabinofuranoside]
Bgl-gyp17
  Relative activity (%): 0%

## O=[N+]([O-])c1ccc(O[C@@H]2OC[C@H](O)[C@H](O)[C@H]2O)cc1 [pNP-α-L-arabinopyranoside]
Bgl-gyp17
  Relative activity (%): 0%

## C[C@@H]1O[C@@H](Oc2ccc([N+](=O)[O-])cc2)[C@H](O)[C@H](O)[C@H]1O [pNP-α-L-rhamnopyranoside]
Bgl-gyp17
  Relative activity (%): 0%

## C[C@H]1O[C@@H](Oc2ccc([N+](=O)[O-])cc2)[C@H](O)[C@@H](O)[C@H]1O [pNP-β-D-fucopyranoside]
Bgl-gyp17
  Relative activity (%): 6.98 ± 0.063%

## O=[N+]([O-])c1ccc(O[C@@H]2O[C@H](CO)[C@H](O)[C@H](O)[C@H]2O)cc1 [pNP-β-D-glactopyranoside]
Bgl-gyp17
  Relative activity (%): 0%

## O=[N+]([O-])c1ccc(O[C@@H]2O[C@H](CO)[C@@H](O)[C@H](O)[C@H]2O)cc1 [pNP-β-D-glucopyranoside, p-nitrophenyl-β-D-glucopyranoside]
Bgl-gyp17
  Relative activity (%): 89.52 ± 4.430%

## N[C@H]1[C@H](Oc2ccc([N+](=O)[O-])cc2)O[C@H](CO)[C@@H](O)[C@@H]1O [pNP-β-D-glucosaminide]
Bgl-gyp17
  Relative activity (%): 0%

## O=[N+]([O-])c1ccc(O[C@@H]2O[C@H](CO)[C@@H](O)[C@H](O)[C@@H]2O)cc1 [pNP-β-D-mannopyranoside]
Bgl-gyp17
  Relative activity (%): 0%

## O=[N+]([O-])c1ccc(O[C@@H]2OC[C@@H](O)[C@H](O)[C@H]2O)cc1 [pNP-β-D-xylopyranoside]
Bgl-gyp17
  Relative activity (%): 0%

## O=[N+]([O-])c1ccc(OC2OCC(O)C(O)C2O)cc1 [pNP-β-L-binopyranoside]
Bgl-gyp17
  Relative activity (%): 0%
